Experiment: Antioxidant activity in brain homogenate assessed as drug level require to inhibit 50% of spontaneous lipid peroxidation relative to control
Format: functional, tissue-based

| SMILES | Activity [µg/mL] |
| --- | --- |
| Cc1c(C)c2c(c(C)c1O)CC[C@@](C)(CCC[C@H](C)CCC[C@H](C)CCCC(C)C)O2 | 12.1 |
| COc1ccc(CCC(=O)c2c(O)cc(O)cc2OC)cc1 | 6.9 |
| O=c1c(O)c(-c2ccc(O)c(O)c2)oc2cc(O)cc(O)c12 | 7.6 |
| COc1ccc(CCC(=O)c2c(OC)cc(O)c([C@H](c3ccc(O)cc3)[C@@H](C)[C@H](C)Cc3ccc(O)cc3)c2O)cc1 (relative stereo) | 4.8 |
| COc1ccc(CCC(=O)c2c(OC)cc(O)c([C@@H](c3ccc(O)cc3)[C@@H](C)[C@H](C)Cc3ccc(O)cc3)c2O)cc1 (relative stereo) | 5.5 |
| COc1cc(O)c(C(=O)CCc2ccc(O)cc2)c(OC)c1 | 4.7 |

Source: ChEMBL document CHEMBL1144132, “Dihydrochalcones and flavonolignans from Iryanthera lancifolia” (J Nat Prod, 1999)
